Experimental data from ChEMBL document CHEMBL6153110, “Peptide Double-Stapling and Arginine N-Glycosylation Triggered the Development of Therapeutic Antimicrobial Peptides Capable of Killing Drug-Resistant Bacteria in Mice” (J Med Chem, 2025).
≈ marks a conversion by molar mass, not a printed value. Starred links: 1 amine or outer side, 2 acyl side, 3 side chain; linkers in the order of their positions; H or OH if unused. Positions of bridges follow the written chain, without caps; N, C: chain ends. Non-standard residues stand in square brackets, D forms with d. Residues, ends and D or L forms follow the SMILES beside them. ξ: configuration not given here. ξαMeNle(6-ylidene) = CC(CCCC=[*:3])(N[*:1])C(=O)[*:2]; R8 = C=CCCCCCC[C@@](C)(N)C(=O)O; S5 = C=CCCC[C@](C)(N)C(=O)O; ξV = CC(C)C(N)C(=O)O

How the values were obtained:
Pseudomonas aeruginosa = experiment: Antimicrobial activity against Pseudomonas aeruginosa ATCC 27853 assessed as growth inhibition measured after 8 hrs incubation by standard broth dilution assay; assay type: functional
Klebsiella pneumoniae = experiment: Antimicrobial activity against Klebsiella pneumoniae ATCC 13883 assessed as growth inhibition measured after 8 hrs incubation by standard broth dilution assay; assay type: functional
Staphylococcus aureus = experiment: Antimicrobial activity against methicillin-resistant Staphylococcus aureus ATCC 43300 assessed as growth inhibition measured after 8 hrs incubation by standard broth dilution assay; assay type: functional
Streptococcus pneumoniae = experiment: Antimicrobial activity against Streptococcus pneumoniae ATCC 49619 assessed as growth inhibition measured after 8 hrs incubation by standard broth dilution assay; assay type: functional
[1] = Hemolytic activity in BALB/c mouse red blood cells assessed as hemolysis incubated for 1 hrs; assay type: toxicity, cell-based, Erythrocyte; conditions: read-out: HD50

Compound | MIC (Pseudomonas aeruginosa) [µg/mL] | MIC (Klebsiella pneumoniae) [µg/mL] | MIC (Staphylococcus aureus) [µg/mL] | MIC (Streptococcus pneumoniae) [µg/mL] | HC50 at 1 h [1] [µg/mL]
CC(=O)N[C@@H](CCCCN)C(=O)N[C@@H](CCCCN)C(=O)N[C@@H](CCCNC(=N)N)C(=O)N[C@H](C(=O)N[C@@H](Cc1c[nH]c2ccccc12)C(=O)N[C@@H](CCCCN)C(=O)N[C@@H](CCCNC(=N)N)C(=O)N[C@H](C(=O)N[C@@H](Cc1ccccc1)C(=O)N[C@@H](CCCCN)C(=O)N[C@@H](CC(C)C)C(=O)N[C@@H](CC(C)C)C(=O)N[C@@H](CCCCN)C(=O)N[C@@]1(C)CCC/C=C\CCC[C@@](C)(C(=O)N[C@@H](CC(C)C)C(=O)N[C@@H](CCCCN)C(=O)N[C@@H](CCCCN)C(=O)N2CCC[C@H]2C(=O)N[C@H](C(=O)N[C@@H](CCCNC(=N)N)C(N)=O)C(C)C)NC(=O)[C@H](CCCNC(=N)N)NC(=O)[C@H](Cc2c[nH]c3ccccc23)NC(=O)[C@H](Cc2ccc(O)cc2)NC1=O)C(C)C)C(C)C (Ac-KKRVWKRVFKLLK[S5]YWR[S5]LKKPVR-NH2; staple (Z) 14-18) | 2.9 (≈ 0.893 µM) | 4.9 (≈ 1.51 µM) | 4.9 (≈ 1.51 µM) | 2.4 (≈ 0.739 µM) | 19.2
CC(=O)N[C@@H](CCCCN)C(=O)N[C@@H](CCCCN)C(=O)N[C@@H](CCCNC(=N)N)C(=O)N[C@H](C(=O)N[C@@H](Cc1c[nH]c2ccccc12)C(=O)N[C@@H](CCCCN)C(=O)N[C@@H](CCCNC(=N)N)C(=O)N[C@@]1(C)CCC/C=C\CCC[C@@](C)(C(=O)N[C@@H](CCCCN)C(=O)N[C@@]2(C)CCC/C=C\CCC[C@@](C)(C(=O)N[C@@H](CC(C)C)C(=O)N[C@@H](CCCCN)C(=O)N[C@@H](CCCCN)C(=O)N3CCC[C@H]3C(=O)N[C@H](C(=O)N[C@@H](CCCNC(=N)N)C(N)=O)C(C)C)NC(=O)[C@H](CCCNC(=N)N)NC(=O)[C@H](Cc3c[nH]c4ccccc34)NC(=O)[C@H](CCCCN)NC2=O)NC(=O)[C@H](CC(C)C)NC(=O)[C@H](CCCCN)NC(=O)[C@H](Cc2ccccc2)NC1=O)C(C)C (Ac-KKRVWKR[S5]FKL[S5]K[S5]KWR[S5]LKKPVR-NH2; staple (Z) 8-12, 14-18) | 2.6 (≈ 0.8 µM) | 38 (≈ 11.7 µM) | 2.5 (≈ 0.769 µM) | 4.7 (≈ 1.45 µM) | 88.4
CC(=O)N[C@@H](CCCCN)C(=O)N[C@@H](CCCCN)C(=O)N[C@@H](CCCNC(=N)N)C(=O)N[C@H](C(=O)N[C@@H](Cc1c[nH]c2ccccc12)C(=O)N[C@@H](CCCCN)C(=O)N[C@@H](CCCNC(=N)N)C(=O)N[C@@]1(C)CCC/C=C\CCC[C@@](C)(C(=O)N[C@@H](CCCCN)C(=O)N[C@@]2(C)CCC/C=C\CCC[C@@](C)(C(=O)N[C@@H](CC(C)C)C(=O)N[C@@H](CCCCN)C(=O)N[C@@H](CCCCN)C(=O)N3CCC[C@H]3C(=O)N[C@H](C(=O)N[C@@H](CCCNC(=N)N)C(N)=O)C(C)C)NC(=O)[C@H](CCCNC(=N)N)NC(=O)[C@H](CCCCN)NC(=O)[C@H](Cc3ccc(O)cc3)NC2=O)NC(=O)[C@H](CC(C)C)NC(=O)[C@H](CCCCN)NC(=O)[C@H](Cc2ccccc2)NC1=O)C(C)C (Ac-KKRVWKR[S5]FKL[S5]K[S5]YKR[S5]LKKPVR-NH2; staple (Z) 8-12, 14-18) | 2.6 (≈ 0.805 µM) | 2.5 (≈ 0.774 µM) | 2.5 (≈ 0.774 µM) | 4.7 (≈ 1.46 µM) | 38.7
CC(=O)N[C@@H](CCCCN)C(=O)N[C@@H](CCCCN)C(=O)N[C@@H](CCCNC(=N)N)C(=O)N[C@H](C(=O)N[C@@H](Cc1c[nH]c2ccccc12)C(=O)N[C@@H](CCCCN)C(=O)N[C@@H](CCCNC(=N)N)C(=O)N[C@@]1(C)CCC/C=C\CCC[C@@](C)(C(=O)N[C@@H](CCCCN)C(=O)N[C@@]2(C)CCC/C=C\CCC[C@@](C)(C(=O)N[C@@H](CC(C)C)C(=O)N[C@@H](CCCCN)C(=O)N[C@@H](CCCCN)C(=O)N3CCC[C@H]3C(=O)N[C@H](C(=O)N[C@@H](CCCNC(=N)N)C(N)=O)C(C)C)NC(=O)[C@H](CCCNC(=N)N)NC(=O)[C@H](Cc3c[nH]c4ccccc34)NC(=O)[C@H](Cc3ccc(O)cc3)NC2=O)NC(=O)[C@H](CC(C)C)NC(=O)[C@H](CCCCN)NC(=O)[C@H](Cc2ccccc2)NC1=O)C(C)C (Ac-KKRVWKR[S5]FKL[S5]K[S5]YWR[S5]LKKPVR-NH2; staple (Z) 8-12, 14-18) | 5 (≈ 1.52 µM) | 4.6 (≈ 1.4 µM) | 4.9 (≈ 1.49 µM) | 2.4 (≈ 0.73 µM) | 15.3
CC(=O)N[C@@H](CCCCN)C(=O)N[C@@H](CCCCN)C(=O)N[C@@H](CCCNC(=N)N)C(=O)N[C@H](C(=O)N[C@]1(C)CCCCCC/C=C\CCC[C@@](C)(C(=O)N[C@@H](CCCCN)C(=O)N[C@@]2(C)CCC/C=C\CCCC(C)(C(=O)N[C@@H](CC(C)C)C(=O)N[C@@H](CCCCN)C(=O)N[C@@H](CCCCN)C(=O)N3CCC[C@H]3C(=O)N[C@H](C(=O)N[C@@H](CCCNC(=N)N)C(N)=O)C(C)C)NC(=O)[C@H](CCCNC(=N)N)NC(=O)[C@H](Cc3c[nH]c4ccccc34)NC(=O)[C@H](Cc3ccc(O)cc3)NC2=O)NC(=O)[C@H](CC(C)C)NC(=O)[C@H](CCCCN)NC(=O)[C@H](Cc2ccccc2)NC(=O)C(C(C)C)NC(=O)[C@H](CCCNC(=N)N)NC(=O)[C@H](CCCCN)NC1=O)C(C)C (stereo not given in full) (Ac-KKRV[R8]KR[ξV]FKL[S5]K[S5]YWR[ξαMeNle(6-ylidene)]LKKPVR-NH2; staple (Z) 5-12, 14-18) | 5 (≈ 1.54 µM) | 4.9 (≈ 1.51 µM) | 4.9 (≈ 1.51 µM) | 2.4 (≈ 0.74 µM) | 12.7
CC(=O)N[C@@H](CCCCN)C(=O)N[C@@H](CCCCN)C(=O)N[C@@H](CCCNC(=N)N)C(=O)N[C@H](C(=O)N[C@@]1(C)CCC/C=C\CCC[C@@](C)(C(=O)N[C@@H](CCCCN)C(=O)N[C@@H](CC(C)C)C(=O)N[C@@H](CC(C)C)C(=O)N[C@@H](CCCCN)C(=O)N[C@@]2(C)CCC/C=C\CCC[C@@](C)(C(=O)N[C@@H](CC(C)C)C(=O)N[C@@H](CCCCN)C(=O)N[C@@H](CCCCN)C(=O)N3CCC[C@H]3C(=O)N[C@H](C(=O)N[C@@H](CCCNC(=N)N)C(N)=O)C(C)C)NC(=O)[C@H](CCCNC(=N)N)NC(=O)[C@H](Cc3c[nH]c4ccccc34)NC(=O)[C@H](Cc3ccc(O)cc3)NC2=O)NC(=O)[C@H](C(C)C)NC(=O)[C@H](CCCNC(=N)N)NC(=O)[C@H](CCCCN)NC1=O)C(C)C (Ac-KKRV[S5]KRV[S5]KLLK[S5]YWR[S5]LKKPVR-NH2; staple (Z) 5-9, 14-18) | 5 (≈ 1.58 µM) | 4.9 (≈ 1.55 µM) | 4.9 (≈ 1.55 µM) | 4.7 (≈ 1.48 µM) | 13.2
CC(=O)N[C@@H](CCCCN)C(=O)N[C@@H](CCCCN)C(=O)N[C@@H](CCCNC(=N)N)C(=O)N[C@@]1(C)CCC/C=C\CCC[C@@](C)(C(=O)N[C@@H](Cc2ccccc2)C(=O)N[C@@H](CCCCN)C(=O)N[C@@H](CC(C)C)C(=O)N[C@@H](CC(C)C)C(=O)N[C@@H](CCCCN)C(=O)N[C@@]2(C)CCC/C=C\CCC[C@@](C)(C(=O)N[C@@H](CC(C)C)C(=O)N[C@@H](CCCCN)C(=O)N[C@@H](CCCCN)C(=O)N3CCC[C@H]3C(=O)N[C@H](C(=O)N[C@@H](CCCNC(=N)N)C(N)=O)C(C)C)NC(=O)[C@H](CCCNC(=N)N)NC(=O)[C@H](Cc3c[nH]c4ccccc34)NC(=O)[C@H](Cc3ccc(O)cc3)NC2=O)NC(=O)[C@H](CCCNC(=N)N)NC(=O)[C@H](CCCCN)NC(=O)[C@H](Cc2c[nH]c3ccccc23)NC1=O (Ac-KKR[S5]WKR[S5]FKLLK[S5]YWR[S5]LKKPVR-NH2; staple (Z) 4-8, 14-18) | 5 (≈ 1.52 µM) | 4.9 (≈ 1.48 µM) | 4.9 (≈ 1.48 µM) | 4.7 (≈ 1.42 µM) | 10.5
